Measurements taken from PubChem BioAssay AID248 (DTP/NCI, 2004).
“And” between values parts separate entries of the source, which are not always exact repeats. Equal entries are not always repeated. Toxic doses and inconclusive results are not listed. Rule as the data show it: active = T/C of 150% or more; inactive = T/C below 125%.

Test system: L1210 leukemia ip in BDF1 mice, survival T/C
Assay: NCI In Vivo Anticancer Drug Screen. Data for tumor model L1210 Leukemia (intraperitoneal) in B6D2F1 (BDF1) mice
Settings: endpoint: mean survival time, higher = longer survival
How it was run: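 Value reflects the ratio of survival in compound-treated mice to survival in vehicle-treated controls, with both groups carrying the same transplanted tumor.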

[1] = dose: 100.0 mg/kg/injection, schedule: Q04DX002 (ip), vehicle: Klucel (hydroxypropylcellulose) (HPC)
[2] = dose: 200.0 mg/kg/injection, schedule: Q04DX002 (ip), vehicle: Klucel (hydroxypropylcellulose) (HPC)
[3] = dose: 400.0 mg/kg/injection, schedule: Q04DX002 (ip), vehicle: Klucel (hydroxypropylcellulose) (HPC)
[4] = dose: 100.0 mg/kg/injection, schedule: Q01DX009 (ip), vehicle: Klucel (hydroxypropylcellulose) (HPC)
[5] = dose: 200.0 mg/kg/injection, schedule: Q01DX009 (ip), vehicle: Klucel (hydroxypropylcellulose) (HPC)
[6] = dose: 400.0 mg/kg/injection, schedule: Q01DX009 (ip), vehicle: Klucel (hydroxypropylcellulose) (HPC)
[7] = dose: 100.0 mg/kg/injection, schedule: Q01DX001 (ip), vehicle: Klucel (hydroxypropylcellulose) (HPC)
[8] = dose: 100.0 mg/kg/injection, schedule: Q04DX003 (ip), vehicle: Klucel (hydroxypropylcellulose) (HPC)
[9] = dose: 200.0 mg/kg/injection, schedule: Q04DX003 (ip), vehicle: Klucel (hydroxypropylcellulose) (HPC)
[10] = dose: 400.0 mg/kg/injection, schedule: Q04DX003 (ip), vehicle: Klucel (hydroxypropylcellulose) (HPC)
[11] = dose: 100.0 mg/kg/injection, schedule: Q01DX001 (ip), vehicle: carboxymethylcellulose (CMC)
[12] = dose: 400.0 mg/kg/injection, schedule: Q01DX001 (ip), vehicle: carboxymethylcellulose (CMC)
[13] = dose: 50.0 mg/kg/injection, schedule: Q04DX003 (ip), vehicle: Klucel (hydroxypropylcellulose) (HPC)
[14] = dose: 25.0 mg/kg/injection, schedule: Q04DX002 (ip), vehicle: Klucel (hydroxypropylcellulose) (HPC)

Measured: T/C

CSc1ccc(OC(=O)Nc2cccc3ccccc23)cc1
inactive: [1] 96 % of control | [2] 104 % of control | [3] 101 % of control

CCCCCCCCCCCCCCCCCC[N+](C)=C1SCCS1
inactive: dose: 1.56 mg/kg/injection, schedule: Q01DX009 (ip), vehicle: Klucel (hydroxypropylcellulose) (HPC) 94 % of control | dose: 3.13 mg/kg/injection, schedule: Q01DX009 (ip), vehicle: Klucel (hydroxypropylcellulose) (HPC) 105 % of control | dose: 6.25 mg/kg/injection, schedule: Q01DX009 (ip), vehicle: Klucel (hydroxypropylcellulose) (HPC) 105 % of control

CC(=O)NS(=O)(=O)c1ccc(N=Cc2ccccc2O)cc1
inactive: [4] 101 % of control | [5] 94 % of control | [6] 100 % of control

COc1c(O)cc2oc3cc(O)c(CC=C(C)C)c(O)c3c(=O)c2c1CC=C(C)C
inactive: [7] 97 % of control | [4] 96 % of control | [8] 105 % of control | dose: 200.0 mg/kg/injection, schedule: Q01DX001 (ip), vehicle: Klucel (hydroxypropylcellulose) (HPC) 97 % of control | [9] 105 % of control | dose: 400.0 mg/kg/injection, schedule: Q01DX001 (ip), vehicle: Klucel (hydroxypropylcellulose) (HPC) 98 % of control | [10] 100 % of control

CN(Cc1cnc(N)nc1N)c1ccc(C(=O)O)cc1
inactive: [11] 90 % of control | [12] 92 % of control

CCOc1ccc(Nc2nc(=O)[nH]c3ccccc23)cc1CN(CCCl)CCCl
inactive: dose: 25.0 mg/kg/injection, schedule: Q04DX002 (ip), vehicle: saline 104 % of control | dose: 50.0 mg/kg/injection, schedule: Q04DX002 (ip), vehicle: saline 100 % of control | dose: 100.0 mg/kg/injection, schedule: Q04DX002 (ip), vehicle: saline 111 % of control | dose: 200.0 mg/kg/injection, schedule: Q04DX002 (ip), vehicle: saline 95 % of control and 111 % of control | dose: 400.0 mg/kg/injection, schedule: Q04DX002 (ip), vehicle: saline 95 % of control

CCCCCCCOC(=O)COc1ccc(Cl)cc1Cl
inactive: [1] 90 % of control | [2] 87 % of control | [3] 97 % of control

O=C(CI)Nc1cc(C(F)(F)F)ccc1Cl
inactive: dose: 25.0 mg/kg/injection, schedule: Q04DX003 (ip), vehicle: Klucel (hydroxypropylcellulose) (HPC) 102 % of control | [13] 94 % of control

O=C(CS)OCCOC(=O)CS
inactive: [13] 105 % of control | [4] 92 % of control | [8] 101 % of control | [5] 87 % of control | [9] 106 % of control | [10] 86 % of control

O=C(CBr)c1ccc(Br)cc1
inactive: dose: 12.5 mg/kg/injection, schedule: Q01DX009 (ip), vehicle: Klucel (hydroxypropylcellulose) (HPC) 97 % of control | dose: 25.0 mg/kg/injection, schedule: Q01DX009 (ip), vehicle: Klucel (hydroxypropylcellulose) (HPC) 97 % of control | [14] 100 % of control | dose: 50.0 mg/kg/injection, schedule: Q01DX009 (ip), vehicle: Klucel (hydroxypropylcellulose) (HPC) 93 % of control | dose: 50.0 mg/kg/injection, schedule: Q04DX002 (ip), vehicle: Klucel (hydroxypropylcellulose) (HPC) 89 % of control | [1] 96 % of control and 107 % of control | [2] 111 % of control | [3] 92 % of control

CC[CH2][Sn]([Cl])([Cl])[CH2]CC
inactive: dose: 0.13 mg/kg/injection, schedule: Q01DX009 (ip), vehicle: saline 98 % of control | dose: 0.25 mg/kg/injection, schedule: Q01DX009 (ip), vehicle: saline 112 % of control | dose: 0.5 mg/kg/injection, schedule: Q01DX009 (ip), vehicle: saline 105 % of control and 108 % of control | dose: 1.0 mg/kg/injection, schedule: Q01DX009 (ip), vehicle: saline 101 % of control | dose: 2.0 mg/kg/injection, schedule: Q01DX009 (ip), vehicle: saline 101 % of control | dose: 4.0 mg/kg/injection, schedule: Q01DX009 (ip), vehicle: saline 104 % of control

C[CH2][Ge]([CH2]C)([CH2]C)[CH2]CCO
inactive: dose: 5.0 mg/kg/injection, schedule: Q04DX002 (ip), vehicle: saline with Tween-80 103 % of control | dose: 10.0 mg/kg/injection, schedule: Q04DX002 (ip), vehicle: saline with Tween-80 97 % of control | dose: 20.0 mg/kg/injection, schedule: Q04DX002 (ip), vehicle: saline with Tween-80 95 % of control | dose: 100.0 mg/kg/injection, schedule: Q04DX002 (ip), vehicle: saline with Tween-80 93 % of control | dose: 200.0 mg/kg/injection, schedule: Q04DX002 (ip), vehicle: saline with Tween-80 93 % of control

c1ccc(C(c2ccccc2)C2CCCCC2)cc1
inactive: [8] 87 % of control | [9] 90 % of control

SCc1ccc(Br)cc1
inactive: [11] 104 % of control | dose: 200.0 mg/kg/injection, schedule: Q01DX001 (ip), vehicle: carboxymethylcellulose (CMC) 98 % of control | [12] 104 % of control

CCCCOC(=O)c1ccc(NC(=S)NCCc2ccccc2)cc1
inactive: [4] 103 % of control | [5] 98 % of control | [6] 95 % of control

Cc1ccc(C)c(NC(=O)Nc2ccccc2Cl)c1
inactive: dose: 100.0 mg/kg/injection, schedule: Q01DX009 (ip), vehicle: gum acacia 90 % of control | dose: 100.0 mg/kg/injection, schedule: Q04DX003 (ip), vehicle: gum acacia 93 % of control | dose: 200.0 mg/kg/injection, schedule: Q01DX009 (ip), vehicle: gum acacia 90 % of control | dose: 200.0 mg/kg/injection, schedule: Q04DX003 (ip), vehicle: gum acacia 91 % of control | dose: 400.0 mg/kg/injection, schedule: Q01DX009 (ip), vehicle: gum acacia 90 % of control | dose: 400.0 mg/kg/injection, schedule: Q04DX003 (ip), vehicle: gum acacia 94 % of control

Cc1c2cc3c(cc2cc2c4cc5c(cc4cc[n+]12)OCO5)OCO3 (tested in a mixture with another compound)
inactive: dose: 5.5 mg/kg/injection, schedule: Q04DX003 (ip), vehicle: saline 110 % of control | dose: 6.25 mg/kg/injection, schedule: Q01DX009 (ip), vehicle: saline 110 % of control | dose: 8.3 mg/kg/injection, schedule: Q04DX003 (ip), vehicle: saline 108 % of control | dose: 12.5 mg/kg/injection, schedule: Q01DX009 (ip), vehicle: saline 89 % of control | dose: 12.5 mg/kg/injection, schedule: Q04DX003 (ip), vehicle: saline 98 % of control | dose: 18.7 mg/kg/injection, schedule: Q04DX003 (ip), vehicle: saline 93 % of control

CC1CN(C(C)C)C1
inactive: dose: 100.0 mg/kg/injection, schedule: Q01DX001 (ip), vehicle: acetone 101 % of control | dose: 200.0 mg/kg/injection, schedule: Q01DX001 (ip), vehicle: acetone 97 % of control

C=C1CC(C)(c2ccccn2)OC1=O (stereo not given)
inactive: dose: 6.25 mg/kg/injection, schedule: Q04DX002 (ip), vehicle: Klucel (hydroxypropylcellulose) (HPC) 94 % of control | dose: 12.5 mg/kg/injection, schedule: Q04DX002 (ip), vehicle: Klucel (hydroxypropylcellulose) (HPC) 102 % of control | dose: 25.0 mg/kg/injection, schedule: Q01DX001 (ip), vehicle: Klucel (hydroxypropylcellulose) (HPC) 120 % of control | [14] 110 % of control | [7] 98 % of control
